This note sets out measurements from publication PMC7391767, “Molecular mechanisms underlying menthol binding and activation of TRPM8 ion channel” (Nature Communications, 2020).

Where “and” joins values, the source holds several entries; their conditions need not be identical. Equal entries are not always repeated.

What all share (type): cell-based
What all share (design): Shifts in ANAP emission, Ave: unit: nm

The target in experiment [1] is T1, ANAP-incorporated TRPM8 (Mus musculus, UniProt Q8R4D5, L774X).
T1 construct: expressed in transfected cells; host or cells: HEK293 cells, co-transfected with the pANAP vector
As for the experimental part:
(§1) As fluorescence emission peak of ANAP shifts to a longer wavelength in more hydrophilic environment, we measured the shift in ANAP emission peak to report conformational changes. Fluorescence properties of ANAP may also be affected by other factors such as temperature and pH[31], so we performed our ANAP experiments always at room temperature (22 ± 1°C). To control for changes in solution pH, we added 3 mM HEPES in ANAP imaging solution to buffer the pH at 7.2. We genetically integrated ANAP into a specific site on TRPM8 with special tRNA and synthetase encoded by pANAP vector (Fig. 5d).
(§2) L-ANAP methyl ester was purchased from AsisChem. pANAP vector was purchased from Addgene. ANAP was incorporated into TRPM8 by introducing a TAG amber stop codon mutation as previously reported. Briefly, after co-transfection of both TRPM8 and pANAP vectors, ANAP was directly added to the culture medium to the final concentration of 20 µM. After 1–2 days, ANAP-containing culture medium was completely changed. Cells were further cultured in ANAP-free medium overnight before experiments.
(§3) ANAP fluorescence was excited by the Ar laser with a 375/28 excitation filter, a T400lp dichroic mirror, and a 435LP emission filter on an inverted fluorescence microscope (Nikon TE2000-U) using a ×40 oil-immersion objective (NA 1.3). Emission spectrum of ANAP was imaged with an Acton SpectraPro 2150i spectrograph in conjunction with an optiMOS CCD camera (Qimaging, USA). We determined the ANAP emission peak value by fitting the emission spectrum with a skewed Gauss distribution in Igor Pro version 6.1 (WaveMatrix), and then the difference in emission peak values measured in the absence and presence of menthol was reported as the shift of ANAP emission.

For experiment [2], the target named is T2, ANAP-incorporated TRPM8 (Mus musculus, UniProt Q8R4D5, W896X).
T2 construct: expressed in transfected cells; host or cells: HEK293 cells, co-transfected with the pANAP vector
Particulars: ANAP incorporation site W896. As for the experimental part:
as §1, §2, §3

The target of experiment [3] is T3, ANAP-incorporated TRPM8 (Mus musculus, UniProt Q8R4D5, N789X).
T3 construct: expressed in transfected cells; host or cells: HEK293 cells, co-transfected with the pANAP vector
Particulars: ANAP incorporation site N789; average shift, menthol activated vs resting state. As for the experimental part:
as §1, §2, §3

The target of experiment [4] is T4, ANAP-incorporated TRPM8 (Mus musculus, UniProt Q8R4D5, P952X).
T4 construct: expressed in transfected cells; host or cells: HEK293 cells, co-transfected with the pANAP vector
Particulars: ANAP incorporation site P952; average shift, menthol activated vs resting state. As for the experimental part: as §1, §2, §3

The target in experiment [5] is T5, ANAP-incorporated TRPM8 (Mus musculus, UniProt Q8R4D5, L817X).
T5 construct: expressed in transfected cells; host or cells: HEK293 cells, co-transfected with the pANAP vector
Particulars: ANAP incorporation site L817; average shift, menthol activated vs resting state. As for the experimental part: as §1, §2, §3

The target of experiment [6] is T6, ANAP-incorporated TRPM8 (Mus musculus, UniProt Q8R4D5, D944X).
T6 construct: expressed in transfected cells; host or cells: HEK293 cells, co-transfected with the pANAP vector
Particulars: ANAP incorporation site D944. As for the experimental part:
as §1, §2, §3

Experiment [7] addresses T7, ANAP-incorporated TRPM8 (Mus musculus, UniProt Q8R4D5, S966X).
T7 construct: expressed in transfected cells; host or cells: HEK293 cells, co-transfected with the pANAP vector
Particulars: ANAP at S966. As for the experimental part: as §1, §2, §3

Experiment [8] has as its target T8, ANAP-incorporated TRPM8 (Mus musculus, UniProt Q8R4D5, V876X).
T8 construct: expressed in transfected cells; host or cells: HEK293 cells, co-transfected with the pANAP vector
Particulars: ANAP incorporation site V876. As for the experimental part:
as §1, §2, §3

Experiment [9] concerns the target T9, ANAP-incorporated TRPM8 (Mus musculus, UniProt Q8R4D5, Y808X).
T9 construct: expressed in transfected cells; host or cells: HEK293 cells, co-transfected with the pANAP vector
Particulars: ANAP incorporation site Y808; average shift, menthol activated vs resting state. As for the experimental part: as §1, §2, §3

[10] abbreviates: average shift, menthol activated vs resting state.

As to `CC(C)[C@@H]1CC[C@@H](C)C[C@H]1O` [menthol, (−)-menthol], the “Shifts in ANAP emission, Ave” value on ANAP-incorporated TRPM8 [1] (ANAP at L774) amounted to 2.36; at ANAP-incorporated TRPM8 [7] it was 2.10. For the same compound, the Shifts_ave on ANAP-incorporated TRPM8 [1] (ANAP incorporation site L774, average shift, menthol activated vs resting state) is reported as 2.3625 nm; on ANAP-incorporated TRPM8 [2] (setting [10]), -1.22 nm; on ANAP-incorporated TRPM8 [3] it was 0.79 nm; at ANAP-incorporated TRPM8 [4], 1.08 nm; at ANAP-incorporated TRPM8 [5] it was 0.801 nm; at ANAP-incorporated TRPM8 [6] (setting [10]), -0.0133 nm. The Shifts_ave is given as 0.71 nm on ANAP-incorporated TRPM8 [8] (setting [10]) and 1.79 nm on ANAP-incorporated TRPM8 [9]. Besides, the “Emission Peak at menthol activated state” value on ANAP-incorporated TRPM8 [1] (ANAP incorporation site L774, single measurement) was 484.17 nm and 483.39 nm and 483.98 nm and 484.46 nm and 486.95 nm and 482.2 nm and 480.79 nm; on ANAP-incorporated TRPM8 [2] (single measurement) it was 474.04 nm and 481.17 nm and 479.96 nm and 475.43 nm; at ANAP-incorporated TRPM8 [6] (single measurement) it was 482.52 nm and 471.8 nm and 476.65 nm and 473.2 nm and 484.21 nm and 484.16 nm; on ANAP-incorporated TRPM8 [8] (single measurement) it was 481.62 nm and 479.21 nm and 478.64 nm and 484.51 nm and 491.43 nm.
